Reference: the NIST ThermoML archive (doi:10.1016/j.jct.2015.06.009)

Assay: xn = mol fraction of the nth substance listed
Settings: 101 kPa, Liquid; for speed of sound: Frequency=3 MHz, Sing-around technique in a fixed-path interferometer; for mass density: Vibrating tube method

COC(C)(C)C [2-methoxy-2-methylpropane] + CCCCO
Settings | mass density, 298.15 K [kg/m3] | mass density, 308.15 K [kg/m3] | mass density, 318.15 K [kg/m3] | mass density, 328.15 K [kg/m3] | speed of sound, 298.15 K [m/s] | speed of sound, 308.15 K [m/s] | speed of sound, 318.15 K [m/s] | speed of sound, 328.15 K [m/s]
x1 = 0.03132 | 803.61 | 795.86 | 788.07 | 780.19 | 1233.9 | 1200 | 1166.3 | 1132.8
x1 = 0.06569 | 801.27 | 793.42 | 785.54 | 777.56 | 1227 | 1192.7 | 1158.4 | 1124.4
x1 = 0.1315 | 796.77 | 788.76 | 780.66 | 772.49 | 1213.6 | 1178.4 | 1143 | 1108.2
x1 = 0.193 | 792.46 | 784.25 | 775.99 | 767.64 | 1200.7 | 1164.5 | 1128.5 | 1092.7
x1 = 0.2647 | 787.54 | 779.11 | 770.65 | 762.09 | 1185.7 | 1148.6 | 1111.7 | 1075
x1 = 0.3401 | 782.26 | 773.61 | 764.93 | 756.13 | 1170.3 | 1131.9 | 1094 | 1056.4
x1 = 0.3916 | 778.65 | 769.83 | 761.01 | 752.07 | 1159.3 | 1120.5 | 1082 | 1043.8
x1 = 0.4652 | 773.54 | 764.48 | 755.43 | 746.28 | 1144.3 | 1104.6 | 1065.2 | 1026.3
x1 = 0.5451 | 768.04 | 758.63 | 749.33 | 739.91 | 1128.3 | 1087.4 | 1047.2 | 1007
x1 = 0.6001 | 764.05 | 754.64 | 745.19 | 735.66 | 1117.3 | 1076.1 | 1034.9 | 995.48
x1 = 0.6708 | 759.06 | 749.44 | 739.77 | 729.95 | 1103.5 | 1061.5 | 1019.5 | 978.48
x1 = 0.7347 | 754.56 | 744.74 | 734.85 | 724.9 | 1091.3 | 1048.4 | 1005.7 | 963.43
x1 = 0.7953 | 750.27 | 740.28 | 730.2 | – | 1079.5 | 1036 | 992.74 | –
x1 = 0.8755 | 744.44 | 734.2 | 723.89 | 713.5 | 1063.6 | 1019 | 974.75 | 932.29
x1 = 0.9367 | 739.95 | 729.44 | 719.05 | 708.44 | 1050.6 | 1005.4 | 960.39 | 917.28
x1 = 1 | 735.22 | 724.64 | 714.01 | 703.38 | 1036.4 | 990.57 | 944.94 | –
